Columns and labels:
hPPARgamma = target: T1, hPPARgamma (Homo sapiens, UniProt P37231); assay: PPAR activation: Gal4-hPPARγ chimera luciferase transactivation in COS-7 cells, Method 2; assay type: cell-based; conditions: COS-7, 24 h, Method 2; for Emax: maximum percentage response relative to the reference rosiglitazone, read-out: hPPARgamma % max; for EC50: 1% Ultroser, read-out: hPPARgamma EC50
T1 construct: expressed in transfected cells; host or cells: COS-7 (monkey kidney fibroblasts)
T1 sequence (P37231 238-503 limits assumed): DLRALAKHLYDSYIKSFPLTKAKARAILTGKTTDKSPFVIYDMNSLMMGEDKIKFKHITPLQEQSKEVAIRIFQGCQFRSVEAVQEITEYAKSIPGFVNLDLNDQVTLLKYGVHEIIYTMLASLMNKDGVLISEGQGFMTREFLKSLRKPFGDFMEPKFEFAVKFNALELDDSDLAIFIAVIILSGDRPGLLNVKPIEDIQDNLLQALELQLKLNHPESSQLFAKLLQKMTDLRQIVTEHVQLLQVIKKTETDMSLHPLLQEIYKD
Experimental: (§1) The activation of the PPARs was evaluated in vitro on a line of monkey kidney fibroblasts (COS-7) by measuring the transcriptional activity of chimeras constituted of the DNA binding domain of the Gal4 transcription factor of yeast and the ligand binding domain of the various PPARs.
Only the application of the transfection stage is slightly different. The details are presented below.
(§2) The adherent COS-7 cells are transfected with 40 μg of DNA per 225 cm^2 dish, with a pGal4-PPAR/Gal4(RE)_TkpGL3 ratio of 1/10, in the presence of 10% fetal calf serum. The cells are then detached and seeded in the absence of serum in 384-well plates (2×10^4 cells/well) and incubated for 4 hours at 37° C. The compounds are then diluted in a 96-well plate and transferred to the 384-well plate. Activation with the test compounds is carried out for an additional 24 h at 37° C. in the presence of 1% of Ultroser™ lipid-free synthetic serum (Biosepra). These last 2 stages are automated using a Genesis Freedom 200™ station (Tecan). At the end of the experiment, the cells are lysed and the luciferase activity is determined using the Steady-Lite™ HTS (Perkin Elmer) following the supplier's recommendations.

hPPARalpha = target: T2, hPPARalpha (Homo sapiens, UniProt Q07869); assay: PPAR activation: Gal4-hPPARα chimera luciferase transactivation in COS-7 cells, Method 2; assay type: cell-based; conditions: COS-7, 24 h; for EC50: 1% Ultroser; for Emax: maximum percentage response relative to the reference phenofibric acid, read-out: hPPARalpha % max
T2 construct: expressed in transfected cells; host or cells: COS-7 (monkey kidney fibroblasts)
T2 sequence (Q07869 239-466 limits assumed): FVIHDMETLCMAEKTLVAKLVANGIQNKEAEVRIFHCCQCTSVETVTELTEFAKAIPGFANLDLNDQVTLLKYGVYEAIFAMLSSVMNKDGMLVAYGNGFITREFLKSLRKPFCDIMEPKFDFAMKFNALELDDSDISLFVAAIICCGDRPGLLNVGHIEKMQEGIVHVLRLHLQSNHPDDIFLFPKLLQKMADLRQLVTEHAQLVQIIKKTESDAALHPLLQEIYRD
Experimental: as §1, with “PPARs. The compounds were tested at doses between 10^−5 and […] on the chimeras Gal4-PPARα, γ or δ, and the corresponding EC50 values were determined.” for “PPARs.”
(§3) The principle, the cells and the plasmids used for example 5 were also employed in this example. Only the application of the transfection stage is slightly different. The details are presented below.
as §2

hPPARdelta = target: T3, hPPARdelta (Homo sapiens, UniProt Q03181); assay: PPAR activation: Gal4-hPPARδ chimera luciferase transactivation in COS-7 cells, Method 2; assay type: cell-based; conditions: COS-7, 24 h; for EC50: 1% Ultroser; for Emax: maximum percentage response relative to the reference GW501516, read-out: hPPARdelta % max
T3 construct: expressed in transfected cells; host or cells: COS-7 (monkey kidney fibroblasts)
T3 sequence (Q03181 211-439 limits assumed): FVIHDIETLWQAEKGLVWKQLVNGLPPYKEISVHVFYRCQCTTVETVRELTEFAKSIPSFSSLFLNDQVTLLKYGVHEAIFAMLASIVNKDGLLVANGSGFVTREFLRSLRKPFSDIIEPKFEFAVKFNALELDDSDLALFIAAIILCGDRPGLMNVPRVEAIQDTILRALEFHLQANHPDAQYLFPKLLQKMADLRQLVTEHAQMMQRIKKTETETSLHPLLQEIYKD
Experimental: as §1, with “PPARs. The compounds were tested at doses between 10^−5 and […] on the chimeras Gal4-PPARα, γ or δ, and the corresponding EC50 values were determined.” for “PPARs.”
as §3, §2

[1] = system: target genes of PPARδ in murine myocytes (C2C12); assay: Expression of target genes of PPARδ (PDK4, CPT1b, UCP2, UCP3) in murine myocytes, quantitative RT-PCR; assay type: cell-based; conditions: murine myocytes in vitro
Source text: It is established that regulation of the expression of these genes is directly controlled by PPARδ in this cell type. The more the expression of the genes is increased, the greater the stimulating action of the compound according to the invention on metabolism in the muscle cells.
Cells from the murine cell line C2C12 (obtained from ECACC) are cultivated in DMEM medium (Gibco; 41965-039) with addition of 1% L-glutamine (Gibco; 25030), 1% of penicillin/streptomycin (VWR; BWSTL0022/100) and 10% decomplemented fetal calf serum (FCS. Gibco; 10270-106).
The cells are seeded on 24-well plates at a density of 50·10^3 cells/well. At confluence, the medium is replaced with a differentiating medium (basal medium with addition of 2% of horse serum (Gibco; 26050-088)), then incubated at 37° C. and 5% CO2 for 4 days in order to differentiate them to myocytes.
After 5 days of differentiation, the cells are put in a deprivation medium (basal medium without serum) for 6 hours. The cells are then treated with the compounds according to the invention in the deprivation medium. Compounds 2, 4, 7, 11, 39, 40, 46, 49 and 72 were in dose effect, corresponding to 1×, 10× and 100× their EC50 PPARδ. The compounds according to the invention were dissolved in dimethylsulfoxide (DMSO, Sigma; D5879). The cells were treated for 24 h at 37° C., 5% CO2. The effect of the compounds according to the invention was compared with the effect of DMSO alone.
After treatment, the total RNA is extracted from the cells using the NucleoSpine® 96 RNA kit (Macherey Nagel, Hoerdt, France) following the manufacturer's instructions.
1 μg of total RNA (quantified based on the UV spectrophotometer reading) was then reverse-transcribed to complementary DNA by reaction for 1 hour at 37° C. in a total volume of 30 μl containing buffer 1× (Invitrogen), 1.5 mM of DTT, 0.18 mM of dNTPs (Promega), 200 ng of pdN6 (Amersham), 30 U of RNase inhibitor (Promega) and 1 μl of MMLV-RT (Invitrogen).
The quantitative PCR experiments were carried out using the MyiQ Single-Color Real-Time PCR Detection System (Biorad, Marnes-la-Coquette, France) and were performed using the iQ SYBR Green Supermix kit following the supplier's recommendations, in 96-well plates, on 5 μl of diluted reverse-transcription reaction mixtures with a hybridization temperature of 60° C. Primer pairs specific to the PDK4, CPT1b, UCP2 and UCP3 genes under investigation were used:
The amount of fluorescence emitted is directly proportional to the amount of complementary DNA present at the start of the reaction and amplified during PCR. For each target investigated, a range is produced by successive dilutions of a pool constituted of a few microliters of various reverse-transcription reaction mixtures. The relative expression levels of each target are thus determined using the efficacy curves obtained with the points in the range.
The levels of expression of the genes of interest were then normalized relative to the level of expression of the reference gene 36B4 (whose specific primers are: sense primer: 5′-[…]-3′ (SEQ ID No. 19) and antisense primer: 5′-[…]-3′ (SEQ ID No. 20)). The induction factor, i.e. the ratio of the relative signal (induced by the compound according to the invention) to the mean of the relative values of the control group, was then calculated. The higher this factor, the greater the activating character of the compounds according to the invention with respect to gene expression. The final result is represented as the mean of the induction values in each experimental group.

Row | Compound | Emax (hPPARgamma) [%] | EC50 (hPPARgamma) [nM] | melting point [°C] | EC50 (hPPARalpha) [nM] | Emax (hPPARalpha) [%] | EC50 (hPPARdelta) [nM] | Emax (hPPARdelta) [%] | expression of genes involved in carbohydrate and lipid metabolism and in thermoregulation [1]
1 | CC(C)OC(CCc1ccc(OC(C)(C)C(=O)O)c(Cl)c1Cl)c1ccc(-c2ccc(C(F)(F)F)cc2)s1 (stereo not shown) [Compound 55, 2-(2,3-dichloro-4-(3-isopropoxy-3-(5-(4-(trifluoromethyl)-phenyl)thien-2-yl)propyl)phenoxy)-2-methylpropanoic acid] | 2 |  | 88 to 90 | 2800 | 25 | 4710 | 34 | 
2 | CC(C)(Oc1ccc(CCC(OCc2ccccc2)c2ccc(-c3ccc(C(F)(F)F)cc3)s2)c(F)c1F)C(=O)O (stereo not shown) [Compound 63, 2-(4-(3-(benzyloxy)-3-(5-(4-(trifluoromethyl)phenyl)thien-2-yl)-propyl)-2,3-difluorophenoxy)-2-methylpropanoic acid] | 44 | 7910 |  | 4210 | 46 | 180 | 97 | stimulating effects
3 | CC(C)(Oc1ccc(CCC(=O)c2ccc(-c3ccc(C(F)(F)F)cc3)s2)cc1)C(=O)O [Compound 67, 2-(4-(3-oxo-3-(5-(4-(trifluoromethyl)phenyl)thien-2-yl)propyl)-phenoxy)-2-methylpropanoic acid] | 37 | 4820 | 154 to 155 | 10 | 45 | 360 | 75 | 
4 | COC(CCc1ccc(OC(C)(C)C(=O)O)c(Cl)c1Cl)c1ccc(-c2ccc(C(F)(F)F)cc2)o1 (stereo not shown) [Compound 72, 2-(2,3-dichloro-4-(3-methoxy-3-(5-(4-(trifluoromethyl)phenyl)fur-2-yl)propyl)phenoxy)-2-methylpropanoic acid] | 70 | 160 |  | 270 | 59 |  | 97 | stimulating effects

Now from value to molecule, other results behind:

Row | Emax (hPPARgamma) [%] | EC50 (hPPARgamma) [nM] | melting point [°C] | EC50 (hPPARalpha) [nM] | Emax (hPPARalpha) [%] | EC50 (hPPARdelta) [nM] | Emax (hPPARdelta) [%] | Compound | expression of genes involved in carbohydrate and lipid metabolism and in thermoregulation [1]
5 | 62 | 860 | 171 to 172 | 150 | 43 | 70 | 107 | CSc1ccc(-c2ccc(C(=O)CCc3ccc(OC(C)(C)C(=O)O)c(Cl)c3Cl)s2)cc1 [Compound 54, 2-(2,3-dichloro-4-(3-(5-(4-(methylthio)phenyl)thien-2-yl)-3-oxo-propyl)phenoxy)-2-methylpropanoic acid] | 
6 | 39 | 1520 | 179 to 180 | 1000 | 44 | 350 | 88 | CC(C)(Oc1ccc(CCC(=O)c2ccc(-c3ccccc3)s2)c(Cl)c1Cl)C(=O)O [Compound 57, 2-(2,3-dichloro-4-(3-oxo-3-(5-phenylthien-2-yl)propyl)phenoxy)-2-methylpropanoic acid] | 
7 | 57 | 230 | 130 to 131 |  | 47 | 30 | 107 | Cc1cc(CCC(=O)c2ccc(-c3ccc(C(F)(F)F)cc3)s2)ccc1OC(C)(C)C(=O)O [Compound 59, 2-methyl-2-(2-methyl-4-(3-oxo-3-(5-(4-(trifluoromethyl)phenyl)-thien-2-yl)propyl)phenoxy)propanoic acid] | 

— patent US8088819B2, “Derivatives of substituted 3-phenyl-1-(phenylthienyl)propan-1-ones and of 3-phenyl-1-(phenylfuranyl) propan-1-ones, preparation and use” (priority 2006, dated 2012)
